According to ChEMBL document CHEMBL5465560, “Selectivity Literature for EUbOPEN Chemogenomic Library” (2024):

Tests used:
[1] = target: T1, 3-phosphoinositide-dependent protein kinase 1 (Homo sapiens) (UniProt O15530); experiment: Selectivity interaction (KinomeScan (DiscoverX)) EUB0001079a PDPK1; conditions: at 1 µM
T1 sequence (whole entry): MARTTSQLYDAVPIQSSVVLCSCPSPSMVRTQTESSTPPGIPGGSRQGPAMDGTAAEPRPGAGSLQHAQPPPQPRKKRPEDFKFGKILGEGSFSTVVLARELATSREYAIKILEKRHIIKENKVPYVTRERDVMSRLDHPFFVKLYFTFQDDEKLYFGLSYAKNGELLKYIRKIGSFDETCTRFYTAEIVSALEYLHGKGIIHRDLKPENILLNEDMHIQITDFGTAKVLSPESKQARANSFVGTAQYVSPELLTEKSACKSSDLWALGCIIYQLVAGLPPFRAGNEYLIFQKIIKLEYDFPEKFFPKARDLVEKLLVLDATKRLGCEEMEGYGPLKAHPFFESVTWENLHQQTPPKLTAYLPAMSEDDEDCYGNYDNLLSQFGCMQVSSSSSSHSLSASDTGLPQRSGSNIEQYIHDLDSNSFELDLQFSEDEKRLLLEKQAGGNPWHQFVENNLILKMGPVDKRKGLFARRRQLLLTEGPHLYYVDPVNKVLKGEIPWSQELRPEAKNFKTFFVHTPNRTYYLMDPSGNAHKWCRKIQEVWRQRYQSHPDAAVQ

[2] = target: T2, Aurora kinase C (Homo sapiens) (UniProt Q9UQB9); experiment: Selectivity interaction (KinomeScan (DiscoverX)) EUB0000666a AURKC; conditions: at 10 µM
T2 sequence (whole entry): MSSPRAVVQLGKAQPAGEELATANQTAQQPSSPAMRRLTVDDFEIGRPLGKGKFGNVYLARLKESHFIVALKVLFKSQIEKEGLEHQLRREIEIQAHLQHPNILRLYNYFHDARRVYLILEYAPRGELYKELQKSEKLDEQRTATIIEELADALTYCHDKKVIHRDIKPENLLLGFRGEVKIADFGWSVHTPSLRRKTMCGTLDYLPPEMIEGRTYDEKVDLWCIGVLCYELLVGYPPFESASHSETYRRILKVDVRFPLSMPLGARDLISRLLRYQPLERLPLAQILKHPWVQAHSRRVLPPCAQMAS

[3] = target: Serine/threonine-protein kinase MRCK gamma (Homo sapiens) (UniProt Q6DT37); conditions: at 10 µM
[4] = target: T3, NUAK family SNF1-like kinase 2 (Homo sapiens) (UniProt Q9H093); experiment: Selectivity interaction (KinomeScan (DiscoverX)) EUB0001049a NUAK2; conditions: at 1 µM
T3 sequence (whole entry): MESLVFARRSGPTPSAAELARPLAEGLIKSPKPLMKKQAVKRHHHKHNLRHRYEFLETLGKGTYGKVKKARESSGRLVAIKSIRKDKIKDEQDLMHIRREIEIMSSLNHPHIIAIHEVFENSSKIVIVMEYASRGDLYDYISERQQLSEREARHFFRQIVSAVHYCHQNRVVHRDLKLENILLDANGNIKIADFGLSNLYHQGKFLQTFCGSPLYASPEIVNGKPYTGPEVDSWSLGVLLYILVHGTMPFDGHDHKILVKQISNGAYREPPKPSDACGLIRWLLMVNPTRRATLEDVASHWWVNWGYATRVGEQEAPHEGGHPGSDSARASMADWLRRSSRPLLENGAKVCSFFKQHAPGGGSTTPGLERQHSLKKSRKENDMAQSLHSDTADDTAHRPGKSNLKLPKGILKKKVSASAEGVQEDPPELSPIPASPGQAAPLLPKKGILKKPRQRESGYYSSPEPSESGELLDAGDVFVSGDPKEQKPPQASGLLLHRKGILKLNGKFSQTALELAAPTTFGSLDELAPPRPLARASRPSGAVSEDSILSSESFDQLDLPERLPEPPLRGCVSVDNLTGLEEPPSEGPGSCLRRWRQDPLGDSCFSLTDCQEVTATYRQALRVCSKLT

[5] = target: Serine/threonine-protein kinase PAK 3 (Homo sapiens) (UniProt O75914); experiment: Selectivity interaction (KinomeScan (DiscoverX)) EUB0001049a PAK3; conditions: at 1 µM
[6] = target: T4, Ephrin type-B receptor 6 (Homo sapiens) (UniProt O15197); experiment: Selectivity interaction (KinomeScan (DiscoverX)) EUB0000607a EPHB6; conditions: at 10 µM
T4 sequence (whole entry): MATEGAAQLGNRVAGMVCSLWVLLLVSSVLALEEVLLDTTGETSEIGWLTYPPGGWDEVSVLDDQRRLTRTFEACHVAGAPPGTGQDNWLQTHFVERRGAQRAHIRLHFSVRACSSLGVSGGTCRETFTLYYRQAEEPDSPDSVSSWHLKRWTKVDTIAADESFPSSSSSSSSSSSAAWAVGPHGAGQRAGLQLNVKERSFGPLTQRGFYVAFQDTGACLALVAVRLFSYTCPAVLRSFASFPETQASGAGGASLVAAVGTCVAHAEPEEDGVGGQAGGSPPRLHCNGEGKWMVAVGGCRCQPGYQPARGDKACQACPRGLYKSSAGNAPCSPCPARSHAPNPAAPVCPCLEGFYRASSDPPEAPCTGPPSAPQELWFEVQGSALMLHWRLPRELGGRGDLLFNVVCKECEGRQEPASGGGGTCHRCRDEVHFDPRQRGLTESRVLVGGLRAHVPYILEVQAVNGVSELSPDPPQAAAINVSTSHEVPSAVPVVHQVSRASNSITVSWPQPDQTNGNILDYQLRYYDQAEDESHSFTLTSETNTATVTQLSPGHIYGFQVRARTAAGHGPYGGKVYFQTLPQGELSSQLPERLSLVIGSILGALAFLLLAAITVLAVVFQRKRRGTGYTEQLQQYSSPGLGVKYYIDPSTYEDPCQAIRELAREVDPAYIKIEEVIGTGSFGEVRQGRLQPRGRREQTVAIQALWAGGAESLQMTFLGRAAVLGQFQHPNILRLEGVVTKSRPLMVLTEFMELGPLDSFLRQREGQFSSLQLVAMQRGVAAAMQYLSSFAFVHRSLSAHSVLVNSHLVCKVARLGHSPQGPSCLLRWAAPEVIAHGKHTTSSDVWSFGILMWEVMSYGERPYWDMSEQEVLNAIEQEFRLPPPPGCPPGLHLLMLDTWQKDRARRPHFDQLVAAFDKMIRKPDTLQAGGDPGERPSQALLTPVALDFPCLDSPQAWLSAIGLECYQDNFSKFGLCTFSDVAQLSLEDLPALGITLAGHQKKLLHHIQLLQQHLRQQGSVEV

[7] = target: Serine/threonine-protein kinase PAK 6 (Homo sapiens) (UniProt Q9NQU5); experiment: Selectivity interaction (SelectScreen profiling (Invitrogen)) EUB0000607a PAK6; conditions: at 2 µM
[8] = target: DNA-dependent protein kinase catalytic subunit (Homo sapiens) (UniProt P78527); experiment: Selectivity interaction (ActivX KiNativ screen (kinase selectivity in THP-1 cell lysates)) EUB0000639a PRKDC; assay type: subcellular; conditions: lysate, at 0.04 µM
[9] = target: Serine/threonine-protein kinase OSR1 (Homo sapiens) (UniProt O95747); experiment: Selectivity interaction (KinomeScan (DiscoverX)) EUB0000092b OXSR1; conditions: at 10 µM

Sequence of Serine/threonine-protein kinase PAK 6 (Homo sapiens) (Q9NQU5 whole entry, looked up): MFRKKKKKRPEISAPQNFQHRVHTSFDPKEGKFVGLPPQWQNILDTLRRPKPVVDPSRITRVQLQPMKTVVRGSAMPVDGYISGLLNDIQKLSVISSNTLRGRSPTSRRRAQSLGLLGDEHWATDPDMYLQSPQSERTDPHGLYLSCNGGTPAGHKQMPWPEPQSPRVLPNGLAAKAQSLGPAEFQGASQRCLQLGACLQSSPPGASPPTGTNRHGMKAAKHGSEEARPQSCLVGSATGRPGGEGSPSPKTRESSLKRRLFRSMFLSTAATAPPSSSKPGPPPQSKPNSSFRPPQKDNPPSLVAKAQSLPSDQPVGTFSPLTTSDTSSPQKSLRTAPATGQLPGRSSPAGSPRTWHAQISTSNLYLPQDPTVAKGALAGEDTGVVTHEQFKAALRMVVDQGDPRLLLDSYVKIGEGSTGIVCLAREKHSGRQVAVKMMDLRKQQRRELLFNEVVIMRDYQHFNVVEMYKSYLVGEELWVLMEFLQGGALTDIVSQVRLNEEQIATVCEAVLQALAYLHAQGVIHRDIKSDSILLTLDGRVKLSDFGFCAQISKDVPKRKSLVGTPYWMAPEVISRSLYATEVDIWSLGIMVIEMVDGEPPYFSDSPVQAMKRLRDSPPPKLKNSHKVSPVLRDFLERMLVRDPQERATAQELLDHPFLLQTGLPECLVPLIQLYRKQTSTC
Sequence of DNA-dependent protein kinase catalytic subunit (Homo sapiens) (P78527 whole entry): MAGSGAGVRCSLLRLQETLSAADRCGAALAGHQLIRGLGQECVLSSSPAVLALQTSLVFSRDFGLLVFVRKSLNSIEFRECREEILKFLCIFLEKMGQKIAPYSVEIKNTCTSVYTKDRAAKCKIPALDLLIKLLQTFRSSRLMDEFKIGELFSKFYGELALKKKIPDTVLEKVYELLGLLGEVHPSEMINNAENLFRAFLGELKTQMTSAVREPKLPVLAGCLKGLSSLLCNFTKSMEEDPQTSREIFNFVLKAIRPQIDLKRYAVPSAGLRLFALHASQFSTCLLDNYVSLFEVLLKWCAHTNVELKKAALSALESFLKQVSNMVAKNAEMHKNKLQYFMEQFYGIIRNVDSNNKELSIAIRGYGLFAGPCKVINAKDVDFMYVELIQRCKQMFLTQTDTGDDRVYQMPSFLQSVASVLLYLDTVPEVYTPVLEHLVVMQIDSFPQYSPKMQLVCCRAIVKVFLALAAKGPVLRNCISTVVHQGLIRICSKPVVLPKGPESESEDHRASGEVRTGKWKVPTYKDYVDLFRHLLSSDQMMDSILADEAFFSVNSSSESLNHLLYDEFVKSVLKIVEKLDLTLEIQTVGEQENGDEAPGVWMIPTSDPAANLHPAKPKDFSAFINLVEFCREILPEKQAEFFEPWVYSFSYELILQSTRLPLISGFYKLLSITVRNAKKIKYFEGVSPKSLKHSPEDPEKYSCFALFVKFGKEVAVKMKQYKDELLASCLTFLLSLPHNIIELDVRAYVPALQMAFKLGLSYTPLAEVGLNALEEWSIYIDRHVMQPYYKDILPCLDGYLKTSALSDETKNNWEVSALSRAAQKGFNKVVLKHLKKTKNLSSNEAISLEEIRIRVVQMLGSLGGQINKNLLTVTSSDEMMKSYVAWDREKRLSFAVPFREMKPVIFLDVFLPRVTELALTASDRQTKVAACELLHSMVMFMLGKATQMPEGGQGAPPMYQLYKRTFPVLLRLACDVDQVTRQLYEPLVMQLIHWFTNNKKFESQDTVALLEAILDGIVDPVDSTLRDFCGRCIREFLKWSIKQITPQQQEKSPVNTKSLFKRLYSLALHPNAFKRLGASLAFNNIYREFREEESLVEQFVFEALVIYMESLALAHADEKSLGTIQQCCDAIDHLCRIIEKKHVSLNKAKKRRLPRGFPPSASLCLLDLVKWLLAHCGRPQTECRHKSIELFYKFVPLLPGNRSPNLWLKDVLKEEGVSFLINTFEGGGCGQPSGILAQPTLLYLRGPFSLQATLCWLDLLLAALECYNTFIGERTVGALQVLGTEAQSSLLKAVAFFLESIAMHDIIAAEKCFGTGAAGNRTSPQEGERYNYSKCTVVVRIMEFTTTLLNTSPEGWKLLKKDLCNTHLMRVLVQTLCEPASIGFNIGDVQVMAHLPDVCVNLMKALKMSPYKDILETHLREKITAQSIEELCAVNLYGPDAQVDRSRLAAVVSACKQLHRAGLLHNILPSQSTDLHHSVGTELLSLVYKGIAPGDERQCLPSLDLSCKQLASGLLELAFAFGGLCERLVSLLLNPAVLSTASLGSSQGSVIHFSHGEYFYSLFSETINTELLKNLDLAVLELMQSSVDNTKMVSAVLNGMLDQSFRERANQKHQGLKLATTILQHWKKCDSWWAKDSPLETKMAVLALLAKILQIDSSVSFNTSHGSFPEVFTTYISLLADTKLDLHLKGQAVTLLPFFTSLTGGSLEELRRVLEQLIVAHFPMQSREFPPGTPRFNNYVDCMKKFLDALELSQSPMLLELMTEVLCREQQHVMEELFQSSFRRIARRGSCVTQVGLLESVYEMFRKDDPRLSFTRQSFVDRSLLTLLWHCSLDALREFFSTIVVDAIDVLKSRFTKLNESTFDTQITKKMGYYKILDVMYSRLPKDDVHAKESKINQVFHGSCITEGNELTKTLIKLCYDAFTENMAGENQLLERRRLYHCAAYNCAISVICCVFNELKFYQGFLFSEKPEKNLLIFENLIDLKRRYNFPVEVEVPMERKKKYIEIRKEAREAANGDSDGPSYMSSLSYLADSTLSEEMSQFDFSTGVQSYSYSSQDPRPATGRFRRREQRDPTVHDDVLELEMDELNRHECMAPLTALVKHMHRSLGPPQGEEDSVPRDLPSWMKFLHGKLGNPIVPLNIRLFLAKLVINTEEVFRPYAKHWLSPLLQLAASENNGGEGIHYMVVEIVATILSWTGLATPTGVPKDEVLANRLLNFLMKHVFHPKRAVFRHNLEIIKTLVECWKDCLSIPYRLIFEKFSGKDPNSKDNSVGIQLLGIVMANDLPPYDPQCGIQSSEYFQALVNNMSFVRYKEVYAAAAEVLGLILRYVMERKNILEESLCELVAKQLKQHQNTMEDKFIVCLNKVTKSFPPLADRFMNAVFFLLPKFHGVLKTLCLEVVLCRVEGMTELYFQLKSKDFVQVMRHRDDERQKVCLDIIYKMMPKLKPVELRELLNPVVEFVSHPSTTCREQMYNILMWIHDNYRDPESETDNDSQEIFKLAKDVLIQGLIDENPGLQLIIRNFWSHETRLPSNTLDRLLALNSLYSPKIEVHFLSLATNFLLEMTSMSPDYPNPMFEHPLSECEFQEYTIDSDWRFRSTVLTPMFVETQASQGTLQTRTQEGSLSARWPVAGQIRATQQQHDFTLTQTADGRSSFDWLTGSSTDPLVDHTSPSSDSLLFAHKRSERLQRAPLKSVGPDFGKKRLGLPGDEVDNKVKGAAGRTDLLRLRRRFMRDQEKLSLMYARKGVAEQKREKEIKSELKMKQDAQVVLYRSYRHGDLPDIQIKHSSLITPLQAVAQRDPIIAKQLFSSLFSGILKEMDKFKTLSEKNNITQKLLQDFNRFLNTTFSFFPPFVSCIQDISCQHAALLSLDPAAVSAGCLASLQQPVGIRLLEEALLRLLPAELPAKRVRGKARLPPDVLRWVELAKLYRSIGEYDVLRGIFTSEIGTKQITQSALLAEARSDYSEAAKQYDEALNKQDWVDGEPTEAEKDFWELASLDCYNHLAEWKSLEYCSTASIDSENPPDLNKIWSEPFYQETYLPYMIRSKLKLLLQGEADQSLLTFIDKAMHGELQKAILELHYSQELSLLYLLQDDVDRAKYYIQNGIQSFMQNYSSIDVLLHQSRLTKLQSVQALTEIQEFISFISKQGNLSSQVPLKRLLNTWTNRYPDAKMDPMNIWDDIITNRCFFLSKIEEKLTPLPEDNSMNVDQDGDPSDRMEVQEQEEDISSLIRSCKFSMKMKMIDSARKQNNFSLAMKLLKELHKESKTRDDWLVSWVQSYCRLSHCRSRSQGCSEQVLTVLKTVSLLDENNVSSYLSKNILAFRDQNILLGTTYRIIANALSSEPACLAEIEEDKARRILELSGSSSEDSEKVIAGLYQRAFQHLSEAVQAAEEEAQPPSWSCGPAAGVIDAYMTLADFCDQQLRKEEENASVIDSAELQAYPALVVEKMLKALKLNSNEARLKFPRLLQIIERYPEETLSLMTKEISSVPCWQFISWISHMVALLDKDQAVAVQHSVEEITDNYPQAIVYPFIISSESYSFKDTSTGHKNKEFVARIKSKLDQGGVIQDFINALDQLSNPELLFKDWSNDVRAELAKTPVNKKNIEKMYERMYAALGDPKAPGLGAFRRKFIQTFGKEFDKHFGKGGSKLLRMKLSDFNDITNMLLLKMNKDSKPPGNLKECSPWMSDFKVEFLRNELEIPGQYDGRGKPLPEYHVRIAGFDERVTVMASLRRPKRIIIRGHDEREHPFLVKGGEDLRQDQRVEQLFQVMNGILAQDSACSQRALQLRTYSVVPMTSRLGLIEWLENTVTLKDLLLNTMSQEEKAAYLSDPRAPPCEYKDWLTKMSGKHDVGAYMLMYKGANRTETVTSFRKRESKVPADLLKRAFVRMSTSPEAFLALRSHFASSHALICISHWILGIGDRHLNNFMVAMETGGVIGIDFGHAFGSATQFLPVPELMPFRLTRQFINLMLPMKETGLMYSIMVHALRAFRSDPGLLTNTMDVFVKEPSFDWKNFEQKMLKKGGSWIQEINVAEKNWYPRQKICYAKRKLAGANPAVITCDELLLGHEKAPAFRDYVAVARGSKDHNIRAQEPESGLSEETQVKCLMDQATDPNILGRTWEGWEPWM

Nc1cnc(N2CCc3cc(S(=O)(=O)Nc4c(F)cc(Cl)cc4F)cc(N4CCCC4=O)c32)nc1 [TP-020n]
% of control [1]: 98%

O=C(NOC[C@H](O)CO)c1ccc(F)c(F)c1Nc1ccc(I)cc1F
% of control [2]: 45%

Cc1cc([C@@H](C)Nc2ccccc2C(=O)O)c2nc(N3CCOCC3)cc(=O)n2c1 [AZD-6482]
% of control [3]: 100%

COc1cc(Nc2nc(C)cc(-c3cnn4nc(OC)ccc34)n2)cc(C(F)(F)F)c1
% of control [4]: 93%
% of control [5]: 85%

CNC(=O)Nc1ccc(-c2nc(N3CC4CCC(C3)O4)c3cnn(C4CCC5(CC4)OCCO5)c3n2)cc1
% of control [6]: 83%
% of inhibition [7]: 11%

CC[C@@H]1[C@H](F)C(=O)N[C@@H]1COc1nccc2cc(C(N)=O)c(OC)cc12 [ZIMLOVISERTIB]
% of inhibition [8]: -0.6%

CCC(=O)N1CCN(c2ccc(-n3c(=O)ccc4cnc5ccc(-c6cnc7ccccc7c6)cc5c43)cc2C(F)(F)F)CC1
% of control [9]: 100%
